The text below walks through data of PubChem BioAssay AID330 (DTP/NCI, 2004).

This experiment concerns P388 leukemia ip, CD2F1 mice, survival T/C. Kind of experiment: NCI In Vivo Anticancer Drug Screen. Data for tumor model P388 Leukemia (intraperitoneal) in CD2F1 (CDF1) mice. The following applies: endpoint: median survival time, higher = longer survival. Summed up:
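Mice carrying the transplanted tumor received test compound or vehicle. Survival was recorded in each group, and the value is the treated-group measurement divided by that of the vehicle-treated control group.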

Where [1] appears, read: dose: 50.0 mg/kg/injection, schedule: Q01DX005 (ip), vehicle: saline with Tween-80.
Setting [2] is: dose: 100.0 mg/kg/injection, schedule: Q01DX005 (ip), vehicle: saline with Tween-80.
The mark [3] stands for this setting: dose: 200.0 mg/kg/injection, schedule: Q01DX005 (ip), vehicle: saline with Tween-80.
Where [4] appears, read: dose: 60.0 mg/kg/injection, schedule: Q01DX005 (ip), vehicle: saline.
[5] abbreviates: dose: 120.0 mg/kg/injection, schedule: Q01DX005 (ip), vehicle: saline.
Where [6] appears, read: dose: 60.0 mg/kg/injection, schedule: Q01DX005 (ip), vehicle: saline with Tween-80.
Setting [7] is: dose: 120.0 mg/kg/injection, schedule: Q01DX005 (ip), vehicle: saline with Tween-80.
The mark [8] stands for this setting: dose: 240.0 mg/kg/injection, schedule: Q01DX005 (ip), vehicle: saline with Tween-80.
[9] abbreviates: dose: 12.5 mg/kg/injection, schedule: Q04DX002 (ip), vehicle: saline with Tween-80.

“And” between values parts separate entries of the source, which are not always exact repeats. Identical values can stand only once. Inconclusive results and toxic doses are left out. Peptide text beside a SMILES is read from it. * marks the point of attachment. Cbz = O=C(OCc1ccccc1)*; OtBu = CC(C)(C)O*

Consider `COc1ccc(N=C(C)C2C(=O)c3ccccc3C2=O)cc1`, for which the T/C is 100 % of control (dose: 50.0 mg/kg/injection, schedule: Q01DX005 (ip), vehicle: DMSO); 113 % of control under setting [1]; 102 % of control (dose: 100.0 mg/kg/injection, schedule: Q01DX005 (ip), vehicle: DMSO); 104 % of control under setting [2]; 102 % of control (dose: 200.0 mg/kg/injection, schedule: Q01DX005 (ip), vehicle: DMSO); 95 % of control under setting [3]. Also, the T/C reads like this: (dose: 400.0 mg/kg/injection, schedule: Q01DX005 (ip), vehicle: DMSO) 117 % of control; (dose: 800.0 mg/kg/injection, schedule: Q01DX005 (ip), vehicle: DMSO) 99 % of control.

`C=C1CC(NCC(=O)OCC)=C(O)C1=O`: the T/C was 93 % of control (dose: 25.0 mg/kg/injection, schedule: Q01DX005 (ip), vehicle: Klucel (hydroxypropylcellulose) (HPC)); 90 % of control (dose: 50.0 mg/kg/injection, schedule: Q01DX005 (ip), vehicle: Klucel (hydroxypropylcellulose) (HPC)); 94 % of control (dose: 100.0 mg/kg/injection, schedule: Q01DX005 (ip), vehicle: Klucel (hydroxypropylcellulose) (HPC)).

Take `O=C(c1cc(-c2ccccc2)nc2ccccc12)n1c(=O)oc(=O)c2cc([N+](=O)[O-])ccc21`: the T/C (dose: 50.0 mg/kg/injection, schedule: Q01DX005 (ip), vehicle: saline) was 97 % of control; the T/C (dose: 100.0 mg/kg/injection, schedule: Q01DX005 (ip), vehicle: saline) is 101 % of control; the T/C (dose: 200.0 mg/kg/injection, schedule: Q01DX005 (ip), vehicle: saline) was 99 % of control.

Consider `O=[N+]([O-])c1ccccc1OCC(O)CCl` (stereo not given), for which the T/C by setting is: (dose: 50.0 mg/kg/injection, schedule: Q01DX009 (ip), vehicle: saline with Tween-80) 102 % of control; (dose: 100.0 mg/kg/injection, schedule: Q01DX009 (ip), vehicle: saline with Tween-80) 99 % of control.

Turning to `CC(C)CC(NC(=O)C(Cc1ccccc1)NC(=O)C1CCCN1C(=O)OCc1ccccc1)C(=O)OC(C)(C)C` (stereo not drawn) (Cbz-Pro-Phe-Leu-OtBu; configuration not given here), the T/C under setting [1] is 100 % of control, the T/C under setting [2] was 100 % of control and the T/C under setting [3] is 91 % of control.

On to `CN1/C(=C/C=C/C(I)=C/C=C/C2=[N+](C)c3ccccc3C2(C)C)C(C)(C)c2ccccc21`, for which the T/C is 121 % of control (dose: 3.13 mg/kg/injection, schedule: Q01DX009 (ip), vehicle: saline with Tween-80); 123 % of control (dose: 6.25 mg/kg/injection, schedule: Q01DX009 (ip), vehicle: saline with Tween-80); 120 % of control (dose: 12.5 mg/kg/injection, schedule: Q01DX009 (ip), vehicle: saline with Tween-80); 124 % of control (dose: 25.0 mg/kg/injection, schedule: Q01DX009 (ip), vehicle: saline with Tween-80).

Consider `CS(=O)(=O)OCCN(CCOS(C)(=O)=O)c1cccc(Cl)c1`, for which the T/C runs as follows: (dose: 1.25 mg/kg/injection, schedule: Q01DX009 (ip), vehicle: other) 95 % of control; (dose: 2.5 mg/kg/injection, schedule: Q01DX009 (ip), vehicle: other) 122 % of control; (dose: 10.0 mg/kg/injection, schedule: Q01DX009 (ip), vehicle: other) 186 % of control.

Take `NNC(=O)CNc1ccccc1F`: the T/C is 97 % of control (dose: 15.0 mg/kg/injection, schedule: Q01DX005 (ip), vehicle: saline); 95 % of control (dose: 30.0 mg/kg/injection, schedule: Q01DX005 (ip), vehicle: saline); 91 % of control and 97 % of control under setting [4]; 97 % of control under setting [5].

For the compound `CCOC(=O)CC1(C)SCCN1C(=O)OCC` (stereo not given), the T/C is 102 % of control (dose: 25.0 mg/kg/injection, schedule: Q01DX005 (ip), vehicle: saline with Tween-80); 98 % of control under setting [1]; 91 % of control under setting [2]; 105 % of control under setting [3].

In the case of `CCOC1CC(=O)C2(C)C3CCC4(C)C(C(C)C5CC(C)=C(CO)C(=O)O5)CCC4C3CC3OC32C1O` (stereo not given), the T/C was 101 % of control (dose: 12.67 mg/kg/injection, schedule: Q01DX009 (ip), vehicle: saline + alcohol); 104 % of control (dose: 25.35 mg/kg/injection, schedule: Q01DX009 (ip), vehicle: saline + alcohol); 92 % of control (dose: 50.7 mg/kg/injection, schedule: Q01DX009 (ip), vehicle: saline + alcohol).

`CC(C)N1CC(=O)N2CSCC2C1=O` (stereo not given): the T/C is 105 % of control under setting [4]; 105 % of control under setting [5]; 105 % of control (dose: 240.0 mg/kg/injection, schedule: Q01DX005 (ip), vehicle: saline).

Regarding `[C-]#[N+]C1CCCCC1.[C-]#[N+]C1CCCCC1.[C-]#[N+]C1CCCCC1.[C-]#[N+]C1CCCCC1.[C-]#[N+]C1CCCCC1.[C-]#[N+]C1CCCCC1.[Mn]`, under “dose: 0.75 mg/kg/injection, schedule: Q01DX009 (ip), vehicle: saline with Tween-80”, the T/C is 155 % of control and 159 % of control.

Take `COc1ccc(C(CC(C)=O)c2cc3c(cc2OC(C)=O)OCO3)cc1` (stereo not given): the T/C by setting is: under setting [6], 97 % of control; under setting [7], 103 % of control; under setting [8], 99 % of control.

Take `COc1cc(C/C(=C\c2ccc3c(c2)OCO3)[N+](=O)[O-])ccc1OCc1ccccc1`: the T/C is, setting by setting: (dose: 100.0 mg/kg/injection, schedule: Q01DX001 (ip), vehicle: Klucel (hydroxypropylcellulose) (HPC)) 98 % of control; (dose: 200.0 mg/kg/injection, schedule: Q01DX001 (ip), vehicle: Klucel (hydroxypropylcellulose) (HPC)) 96 % of control; (dose: 400.0 mg/kg/injection, schedule: Q01DX001 (ip), vehicle: Klucel (hydroxypropylcellulose) (HPC)) 96 % of control.

For the compound `Clc1ccnc2ccc3ncccc3c12`, the T/C by setting is: (dose: 3.12 mg/kg/injection, schedule: Q04DX002 (ip), vehicle: saline with Tween-80) 113 % of control; (dose: 6.25 mg/kg/injection, schedule: Q04DX002 (ip), vehicle: saline with Tween-80) 103 % of control; under setting [9], 100 % of control.

Regarding `Cn1cc(Cl)c2ccccc2c1=O`, the T/C is 101 % of control under setting [1], 99 % of control under setting [2] and 100 % of control under setting [3].

`COc1cccc2nncn12`: the T/C (dose: 50.0 mg/kg/injection, schedule: Q01DX001 (ip), vehicle: saline) was 100 % of control; the T/C (dose: 100.0 mg/kg/injection, schedule: Q01DX001 (ip), vehicle: saline) is 100 % of control; the T/C (dose: 200.0 mg/kg/injection, schedule: Q01DX001 (ip), vehicle: saline) is 100 % of control.

Turning to `COc1ccc(/C=C/c2ccnnc2)cc1`, the T/C is 99 % of control and 102 % of control (dose: 50.0 mg/kg/injection, schedule: Q01DX009 (ip), vehicle: saline); 108 % of control (dose: 100.0 mg/kg/injection, schedule: Q01DX009 (ip), vehicle: saline); 99 % of control and 94 % of control (dose: 200.0 mg/kg/injection, schedule: Q01DX009 (ip), vehicle: saline).

As for `CSc1cnn(-c2ccccc2)[n+]1[O-]`, the T/C is, setting by setting: under setting [1], 98 % of control; under setting [2], 110 % of control; under setting [3], 94 % of control.

Take `O=C1Sc2ccccc2Cn2cccc21`: the T/C is, setting by setting: under setting [6], 108 % of control; under setting [7], 108 % of control; under setting [8], 123 % of control.

As to `CCOC(=O)N(C)N=NCCCl`, the T/C is, setting by setting: (dose: 7.5 mg/kg/injection, schedule: Q01DX005 (ip), vehicle: saline with Tween-80) 117 % of control; (dose: 15.0 mg/kg/injection, schedule: Q01DX005 (ip), vehicle: saline with Tween-80) 118 % of control; (dose: 30.0 mg/kg/injection, schedule: Q01DX005 (ip), vehicle: saline with Tween-80) 175 % of control; under setting [6], 94 % of control.

With `O/N=C/C1CCCC[N-]1.O/N=C/C1CCCC[N-]1.O/N=C/C1CCCC[N-]1.[Cu]` (stereo not given), the T/C runs as follows: (dose: 1.56 mg/kg/injection, schedule: Q01DX009 (ip), vehicle: saline) 87 % of control; (dose: 3.12 mg/kg/injection, schedule: Q01DX009 (ip), vehicle: saline) 96 % of control; (dose: 6.25 mg/kg/injection, schedule: Q01DX009 (ip), vehicle: saline) 87 % of control.

Regarding `Cc1oc2c(C)c3oc(=O)cc(C)c3cc2c1CCl`, the T/C reads like this: under setting [9], 114 % of control; (dose: 25.0 mg/kg/injection, schedule: Q04DX002 (ip), vehicle: saline with Tween-80) 123 % of control; (dose: 400.0 mg/kg/injection, schedule: Q05DX002 (ip), vehicle: saline with Tween-80) 98 % of control.
